Residues, ends and D or L forms follow the SMILES beside them. No end group written: not given here.
Tests used:
[1] = test system: Ovalbumin-Sensitized Guinea Pig Model; test: Anaphylactic shock in ovalbumin-sensitized guinea pig model (death, respiratory parameters); assay type: in vivo; conditions: except for transient changes in respiratory parameters
Method: Guinea pigs (GPs), weighing 350-400 g (from Charles River, GB) were sensitized to rabbit anti-chicken egg albumin (Sigma) by i.p. injection (0.6 mg/kg, using a solution of 1.5 mg/ml in DDW). Twenty-four hours following sensitization, GPs were challenged with inhaled aerosol of chicken ovalbumin (Sigma). The aerosol was generated from an aqueous solution of 25 mg/ml and aerosolized with air 24 l/min. Exposure duration was 1-3 min, according to the required dose. […] During the challenge the GPs were restrained in plethysmographs and their tidal volume, minute volume and respiration rate parameters were monitored. The GPs that received pretreatment with tire mast cell inhibitor C3a9 treated with aerosolized C3a9 peptide (a solution of 0.25 mg/ml, aerosolized with air 24 l/min and treated for 10 min.). The treatment ended 5 min before the challenge with OA. It is estimated that under these conditions each GP inhaled about 7 μg of the peptide. Respiratory parameters of the animals were further monitored for 10 min post challenge.
Eight GPs were tested in each group.

[2] = biological target: T1, FcεRI molecules on RBL-2H3 cells (Rattus norvegicus, UniProt P12371+P13386); test: Homo-FRET between FITC-IgE and TRITC-IgE on RBL-2H3 cells (flow cytometry); assay type: cell-based; conditions: dE = (E/E[control] − 1) × 100; for dE % (Dose 1): Dose 1: C3a 30 μM, C3a2 110 μM, C3a5 110 μM, C3a9 290 μM, C3a14-P 250 μM; for dE % (Dose 2): Dose 2: C3a 70 μM, C3a2 270 μM, C3a5 270 μM, C3a9 670 μM, C3a14-P 630 μM
T1 construct: targeting FcεRI molecules on RBL-2H3 cells; endogenous in cells; host or cells: RBL-2H3
T1 sequence (P12371 24-245): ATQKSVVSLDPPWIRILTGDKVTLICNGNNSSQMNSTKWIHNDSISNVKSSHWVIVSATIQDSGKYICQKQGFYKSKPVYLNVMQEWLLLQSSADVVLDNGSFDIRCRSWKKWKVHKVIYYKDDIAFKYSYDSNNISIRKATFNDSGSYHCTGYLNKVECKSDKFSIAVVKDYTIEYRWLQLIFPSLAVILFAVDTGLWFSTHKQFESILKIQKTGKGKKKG
T1 sequence (P13386 1-243): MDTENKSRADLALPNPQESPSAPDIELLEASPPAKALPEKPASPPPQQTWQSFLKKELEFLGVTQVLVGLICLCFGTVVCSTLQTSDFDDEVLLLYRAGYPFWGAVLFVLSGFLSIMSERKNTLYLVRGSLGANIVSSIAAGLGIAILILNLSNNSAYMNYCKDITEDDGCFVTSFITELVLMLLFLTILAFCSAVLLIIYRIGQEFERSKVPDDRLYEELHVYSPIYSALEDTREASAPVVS
T1 sequence (P20411 19-86 partner): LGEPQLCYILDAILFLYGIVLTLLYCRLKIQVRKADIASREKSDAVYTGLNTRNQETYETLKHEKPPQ
Method: The Forster-type resonance energy transfer between FITC-IgE and TRITC-IgE targeting FcεRI molecules on RBL-2H3 cells was measured (at 1:1 donor-acceptor ratio) by flow cytometry using a BectonDickinson FACStar Plus flow cytometer.

BMMC = test: Binding of FITC-labeled C3a14-P to BMMC (flow cytometry); parameters: species or system mouse; conditions: results not shown
Excerpt: (§1) This supports proximity between the FcεR (IgE receptor) and the peptide.

RBL-2H3 cells [3] = test: Binding of FITC-labeled C3a14-P to RBL-2H3 cells; parameters: species or system rat; conditions: for binding to RBL-2H3 cells: various concentrations, measured after washing / flow cytometry
Method: as §1
RBL-2H3 cells were incubated with the peptide at various concentrations and binding was measured after washing the cells.

[4] = test system: IgE-TRITC on RBL-2H3 cells; test: FRET between C3a14-P-FITC and IgE-TRITC on RBL-2H3 cells; assay type: binding, rat
RBL-2H3 cells [5] = test: Inhibition of antigen-induced (IgE-mediated) β-hexosaminidase secretion by RBL-2H3 cells; assay type: cell-based, rat; conditions: for inhibition of antigen-induced / IgE-dependent degranulation (β-hexosaminidase release): RBL-2H3 cells, result in words
Method: Cells. Rat mucosal mast cells, subline RBL-2H3 (Barsumian et al, 1981) were maintained in Eagle's MEM with Earle's salts supplemented by 10% FCS, 2 mM glutamine and antibiotics in a humidified atmosphere with 7% CO2 at 37° C. Secretory Response of Mast Cells. Mediator secretion by mast cells in response to stimulation by FcεRI clustering was monitored by measuring the activity of the granular enzyme β-hexosaminidase. DNP-specific murine IgE mAb, A2 (3 μl ascites) was added to 10^6 cells in 10 ml MEM and incubated in 96-well plates (100 μl suspension/well) for 2 h. Then, monolayers were washed three times with Tyrode's buffer and stimulated with the antigen (DNP11-BSA). […] Following incubation at 37° C. for 1 h, 20 μl of supernatants were taken and incubated with 50 μl of substrate solution (1.3 mg/ml p-nitrophenyl-N-acetyl-β-D-glucosamine in 0.1 M sodium citrate, pH 4.5) at 37° C. for 45 min. The reaction was terminated by the addition of 150 μl of 0.2 M glycine, pH 10.7, and the optical density of the samples was measured at 405 nm. Results of one representative experiment out of four yielding similar results are presented as percent of the total cell content of the enzyme minus the basal secreted activity. […] Degranulation of the cells was monitored by measuring the activity of the enzyme β-hexosaminidase released into the supernatants after stimulation for 1 h at 37° C. and are presented as net percentages of the cells' total β-hexosaminidase activity.

[6] = biological target: RBL-2H3 cells (rat mucosal mast cells), binding partner on the cell surface not identified; test: fluorescence of washed RBL-2H3 cells, peptide dose 510 µM
[7] = biological target: RBL-2H3 cells (rat mucosal mast cells), binding partner on the cell surface not identified; test: fluorescence of washed RBL-2H3 cells, peptide dose 630 µM
[8] = biological target: RBL-2H3 cells (rat mucosal mast cells), binding partner on the cell surface not identified; test: fluorescence of washed RBL-2H3 cells, peptide dose 250 µM
RBL-2H3 cells [9] = conditions: earlier experiments, cited from earlier work

CC[C@H](C)[C@H](NC(=O)[C@H](Cc1ccc(O)cc1)NC(=O)[C@H](CC(N)=O)NC(=O)[C@H](CS)NC(=O)[C@H](CS)NC(=O)[C@@H](N)CC(=O)O)C(=O)N[C@H](C(=O)N[C@@H](CCCNC(=N)N)C(N)=O)[C@@H](C)O [C3a9] (H-DCCNYITR-NH2)
effect of the C3a9 aerosol treatment itself on GPs (respiratory parameters) [1]: not affected by the treatment | dE % (Dose 1) [2]: −64% | dE % (Dose 2) [2]: −67%

C3a14-P-FITC: FITC-labeled peptide C3a14-P (DSSNYITR; also: FITC label, position not given here)
binding to BMMC (BMMC): showed binding | Fluorescence Mean (w/o background) (RBL-2H3 cells [3]; peptide dose 250 μM): 25 | Fluorescence Mean (w/o background) (RBL-2H3 cells [3]; peptide dose 510 μM): 74 | Fluorescence Mean (w/o background) (RBL-2H3 cells [3]; peptide dose 630 μM): 157 | binding to RBL-2H3 cells (RBL-2H3 cells [3]; listed as FITC-15 labeled C3a14-P): showed binding | binding to RBL-2H3 cells (RBL-2H3 cells [3]; listed as FITC-Labeled C3a14-P): specific binding, but no saturation is reached | FRET Efficiency E (%) ([4]; cells incubated with amount 20 of C3a14-P-FITC (unit not given)): 33% | FRET Efficiency E (%) ([4]; cells incubated with amount 40 of C3a14-P-FITC (unit not given)): 17% | FRET Efficiency E (%) ([4]; cells incubated with amount 60 of C3a14-P-FITC (unit not given)): 9%

CNYITELRRQHARASHLGLAR [C3a2]
inhibition of antigen-induced / IgE-dependent degranulation (β-hexosaminidase release) (RBL-2H3 cells [5]): inhibited in a dose-dependent manner | secretory response when only the peptide was added (RBL-2H3 cells [5]; peptide alone, same range of concentrations, no antigen): No secretory response | dE % (Dose 1) [2]: −101% | dE % (Dose 2) [2]: −130%

Cys-Cys-Asn-Tyr-Gly (CCNYG; not fully specified; printed: Cys-Cys-Asn-Tyr-Gly) [C3a13]
inhibition of antigen-induced / IgE-dependent degranulation (β-hexosaminidase release) (RBL-2H3 cells [5]): inhibit IgE-dependent degranulation of RBL-2H3 cells to a similar extent as did C3a2

DSSNYIR [C3a11, Asp-Ser-Ser-Asn-Tyr-Ile-Arg]
inhibition of antigen-induced / IgE-dependent degranulation (β-hexosaminidase release) (RBL-2H3 cells [5]): inhibit IgE-dependent degranulation of RBL-2H3 cells to a similar extent as did C3a2

DSSNYITR [C3a14-P]
dE % (Dose 1) [2]: −72% | dE % (Dose 2) [2]: −97%

KKVFLDCCNYITELRRQHAR [C3a5]
dE % (Dose 1) [2]: −65% | dE % (Dose 2) [2]: −78%

SVQLTEKRMDKVGKYPKELR [C3a1, reference compound]
inhibition of antigen-induced / IgE-dependent degranulation (β-hexosaminidase release) (RBL-2H3 cells [5]): had no effect at all

DSSNYITR-NH2 (also: FITC-labeled, position of label not given here) [FITC-labeled C3a14-P]
Fluorescence Mean (w/o background) [6]: 74 | Fluorescence Mean (w/o background) [7]: 157 | Fluorescence Mean (w/o background) [8]: 25

B1: C5a: complement-derived peptide C5a (protein, UniProt P01031 678-751, looked up)
C5a anaphylatoxin: TLQKKIEEIAAKYKHSVVKKCCYDGACVNNDETCEQRAARISLGPRCIKAFTECCVVASQLRANISHKDMQLGR
modifications: C5a anaphylatoxin
secretory response when added alone (RBL-2H3 cells [9]; peptide alone (Erdei et al, 1995)): none of the complement-peptides C3a and C5a triggered the secretory response | inhibition of antigen-induced degranulation of RBL-2H3 (RBL-2H3 cells [9]; range of human C3a concentrations (Erdei et al, 1995)): had no effect at all
